Laboratory results: patent US20100137305A1, “AMINOPYRIMIDINES USEFUL AS KINASE INHIBITORS” (VERTEX PHARMACEUTICALS INCORPORATED, priority 2008, published 2010)
Where two headings read alike, the source gives them in different places.

Assays:
[1] = biological target: N-terminally truncated (Δ 27) Abl kinase (Homo sapiens, UniProt P00519); assay: Abl Kinase Activity Inhibition Assay, coupled enzyme system; type: biochemical; settings: 110 μM ATP, 30° C.
Description: Compounds were screened for their ability to inhibit N-terminally truncated (Δ 27) Abl kinase activity using a standard coupled enzyme system (Fox et al., Protein Sci., 7, pp. 2249 (1998)). Reactions were carried out in a solution containing 100 mM HEPES (pH 7.5), 10 mM MgCl2, 25 mM NaCl, 300 μM NADH, 1 mM DTT and 3% DMSO. Final substrate concentrations in the assay were 110 μM ATP (Sigma Chemicals, St Louis, Mo.) and 70 μM peptide (EAIYAAPFAKKK, American Peptide, Sunnyvale, Calif.). Reactions were carried out at 30° C. and 21 nM Abl kinase. Final concentrations of the components of the coupled enzyme system were 2.5 mM phosphoenolpyruvate, 200 μM NADH, 60 μg/ml pyruvate kinase and 20 μg/ml lactate dehydrogenase.
An assay stock buffer solution was prepared containing all of the reagents listed above with the exception of ATP and the test compound of interest. The assay stock buffer solution (60 μl) was incubated in a 96 well plate with 2 μl of the test compound of interest at final concentrations typically spanning 0.002 μM to 30 μM at 30° C. for 10 min. Typically, a 12 point titration was prepared by serial dilutions (from 1 mM compound stocks) with DMSO of the test compounds in daughter plates. The reaction was initiated by the addition of 5 μl of ATP (final concentration 110 μM). Rates of reaction were obtained using a Molecular Devices Spectramax plate reader (Sunnyvale, Calif.) over 10 min at 30° C. The Ki values were determined from the residual rate data as a function of inhibitor concentration using nonlinear regression (Prism 3.0, Graphpad Software, San Diego, Calif.).

[2] = test system: Colo205 cells; assay: Analysis of Cell Proliferation, 3H thymidine incorporation; type: cell-based; settings: Homo sapiens
Description: Compounds were screened for their ability to inhibit cell proliferation using Colo205 cells obtained from ECACC and using the assay shown below.
Colo205 cells were seeded in 96 well plates and serially diluted compound was added to the wells in duplicate. Control groups included untreated cells, the compound diluent (0.1% DMSO alone) and culture medium without cells. The cells were then incubated for 72 or 96 hrs at 37C in an atmosphere of 5% CO2/95% humidity.
To measure proliferation, 3 h prior to the end of the experiment 0.5 μCi of 3H thymidine was added to each well. Cells were then harvested and the incorporated radioactivity counted on a Wallac microplate beta-counter. Dose response curves were calculated using either Prism 3.0 (GraphPad) or SoftMax Pro 4.3.1 LS (Molecular Devices) software.

[3] = biological target: Aurora-1 (Aurora B) (Homo sapiens, UniProt Q96GD4); assay: Aurora-1 (Aurora B) Inhibition Assay (radiometric); type: biochemical; settings: 800 μM ATP; read-out: Aurora B kinase activity Ki
Description: An assay buffer solution was prepared which consisted of 25 mM HEPES (pH 7.5), 10 mM MgCl2, 0.1% BSA and 10% glycerol. A 22 nM Aurora-B solution, also containing 1.7 mM DTT and 1.5 mM Kemptide (LRRASLG), was prepared in assay buffer. To 22 μL of the Aurora-B solution, in a 96-well plate, was added 2 μl of a compound stock solution in DMSO and the mixture allowed to equilibrate for 10 minutes at 25° C. The enzyme reaction was initiated by the addition of 16 μl stock [γ-^33P]-ATP Pi-ATP solution (˜20 nCi/μL) prepared in assay buffer, to a final assay concentration of 800 μM. The reaction was stopped after 3 hours by the addition of 16 μL 500 mM phosphoric acid and the levels of ^33P incorporation into the peptide substrate were determined by the following method.
A phosphocellulose 96-well plate (Millipore, Cat no. MAPHNOB50) was pre-treated with 100 μL of a 100 mM phosphoric acid prior to the addition of the enzyme reaction mixture (40 μL). The solution was left to soak on to the phosphocellulose membrane for 30 minutes and the plate subsequently washed four times with 200 μL of a 100 mM phosphoric acid. To each well of the dry plate was added 30 μL of Optiphase ‘SuperMix’ liquid scintillation cocktail (Perkin Elmer) prior to scintillation counting (1450 Microbeta Liquid Scintillation Counter, Wallac). Levels of non-enzyme catalyzed background radioactivity were determined by adding 16 μL of the 500 mM phosphoric acid to control wells, containing all assay components (which acts to denature the enzyme), prior to the addition of the [γ-^33P]-ATP solution. Levels of enzyme catalyzed ^33P incorporation were calculated by subtracting mean background counts from those measured at each inhibitor concentration. For each Ki determination 8 data points, typically covering the concentration range 0-10 μM compound, were obtained in duplicate (DMSO stocks were prepared from an initial compound stock of 10 mM with subsequent 1:2.5 serial dilutions). Ki values were calculated from initial rate data by non-linear regression using the Prism software package (Prism 3.0, Graphpad Software, San Diego, Calif.).

[4] = biological target: T1, Aurora-2 (Aurora A) (Homo sapiens, UniProt O14965); assay: Aurora-2 (Aurora A) Inhibition Assay, coupled enzyme assay; type: biochemical; settings: 400 μM ATP, 30° C.; read-out: Aurora A kinase activity Ki
T1 sequence (O14965 1-403): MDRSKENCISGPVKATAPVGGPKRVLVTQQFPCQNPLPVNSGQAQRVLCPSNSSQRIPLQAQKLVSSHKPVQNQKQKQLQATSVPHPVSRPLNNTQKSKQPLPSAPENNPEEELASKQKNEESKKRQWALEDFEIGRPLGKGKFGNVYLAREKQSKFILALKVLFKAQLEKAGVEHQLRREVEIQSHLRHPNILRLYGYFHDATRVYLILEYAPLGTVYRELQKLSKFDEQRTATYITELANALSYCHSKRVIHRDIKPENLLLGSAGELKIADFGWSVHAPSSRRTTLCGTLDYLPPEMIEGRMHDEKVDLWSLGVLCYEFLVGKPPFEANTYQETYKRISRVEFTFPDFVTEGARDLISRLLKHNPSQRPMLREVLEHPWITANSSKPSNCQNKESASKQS
Description: Compounds were screened for their ability to inhibit Aurora-2 using a standard coupled enzyme assay (Fox et al., Protein Sci., (1998) 7, 2249). Assays were carried out in a mixture of 100 mM Hepes (pH7.5), 10 mM MgCl2, 1 mM DTT, 25 mM NaCl, 2.5 mM phosphoenolpyruvate, 300 μM NADH, 30 μg/ml pyruvate kinase and 10 μg/ml lactate dehydrogenase. Final substrate concentrations in the assay were 400 μM ATP (Sigma Chemicals) and 570 μM peptide (Kemptide, American Peptide, Sunnyvale, Calif.). Assays were carried out at 30° C. and in the presence of 40 nM Aurora-2.
An assay stock buffer solution was prepared containing all of the reagents listed above, with the exception of Aurora-2 and the test compound of interest. 55 μl of the stock solution was placed in a 96 well plate followed by addition of 2 μl of DMSO stock containing serial dilutions of the test compound (typically starting from a final concentration of 7.5 μM). The plate was preincubated for 10 minutes at 30° C. and the reaction initiated by addition of 10 μl of Aurora-2. Initial reaction rates were determined with a Molecular Devices SpectraMax Plus plate reader over a 10 minute time course. IC50 and Ki data were calculated from non-linear regression analysis using the Prism software package (GraphPad Prism version 3.0cx for Macintosh, GraphPad Software, San Diego Calif., USA).

[5] = biological target: T2, T315I mutant of human Abl (Homo sapiens, UniProt P00519, T315I); assay: Mutant Abl Kinase (T315I) Activity Inhibition Assay (Upstate, radiometric); type: biochemical
T2 construct: purchased Upstate Cell Signaling Solutions (Dundee, UK)

[6] = COLO 205, 96 h, 96 hours, read-out: IC50 cell proliferation after 96 hours
[7] = COLO 205, 72 h, 72 hours, read-out: IC50 cell proliferation after 72 hours

Sequence of Aurora-1 (Aurora B) (Q96GD4 whole entry): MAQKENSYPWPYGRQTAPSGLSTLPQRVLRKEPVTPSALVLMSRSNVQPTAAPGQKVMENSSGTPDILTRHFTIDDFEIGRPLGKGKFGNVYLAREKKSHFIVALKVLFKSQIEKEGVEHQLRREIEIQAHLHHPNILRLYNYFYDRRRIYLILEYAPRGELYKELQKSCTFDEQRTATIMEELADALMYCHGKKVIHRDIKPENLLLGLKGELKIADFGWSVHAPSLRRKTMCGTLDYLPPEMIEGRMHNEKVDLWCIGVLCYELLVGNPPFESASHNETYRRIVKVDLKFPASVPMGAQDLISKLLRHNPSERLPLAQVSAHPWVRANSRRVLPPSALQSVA

| Compound | Ki [1] | IC50 [2, 6] | Ki [3] | Ki [4] | Ki [5] | IC50 [2, 7] |
| --- | --- | --- | --- | --- | --- | --- |
| Cc1cc(Nc2cc(N3CCC(F)C3)nc(Sc3ccc(NC(=O)CC(F)(F)F)cc3)n2)[nH]n1 (stereo not shown) [Compound I-78] | < 0.025 µM |  |  |  |  |  |
| CCC(=O)Nc1ccc(Sc2nc(Nc3cc(C)[nH]n3)cc(N3CC[C@H](N(C)C)C3)n2)cc1 [Compound I-46] | < 0.025 µM | ≤ 0.05 µM | 0.01 to 0.05 µM | ≤ 0.01 µM |  |  |
| CCC(=O)Nc1ccc(Sc2nc(Nc3cc(C)n[nH]3)cc(N3CCC(NC(C)(C)C)CC3)n2)cc1 [Compound I-7] | 0.025 to 0.1 µM |  | 0.01 to 0.05 µM | ≤ 0.01 µM | < 0.2 µM |  |
| Cc1cc(Nc2cc(N3CCC(N4CCC(F)C4)CC3)nc(Sc3ccc(NC(=O)CC(F)(F)F)cc3)n2)[nH]n1 (stereo not shown) [Compound I-63] | 0.025 to 0.1 µM |  | ≤ 0.01 µM | ≤ 0.01 µM | < 0.2 µM | ≤ 0.025 µM |
| CCC(=O)Nc1ccc(Sc2nc(Nc3cc(C)n[nH]3)cc(N3CCC(O)(C(C)(C)C)CC3)n2)cc1 [Compound I-61] |  | ≤ 0.05 µM | 0.01 to 0.05 µM | ≤ 0.01 µM | 0.2 to 0.5 µM |  |
| Cc1cc(Nc2cc(N3CCC(N4CCOCC4)CC3)nc(Sc3ccc(NC(=O)CC(F)(F)F)cc3)n2)[nH]n1 [Compound I-72] |  |  | ≤ 0.01 µM | ≤ 0.01 µM | < 0.2 µM | ≤ 0.025 µM |
| Cc1cc(Nc2cc(N3CCC(F)C3)nc(Sc3ccc(NC(=O)CC(F)(F)F)cc3)n2)[nH]n1 (stereo not shown) [Compound I-71] | 0.025 to 0.1 µM |  | ≤ 0.01 µM | ≤ 0.01 µM | < 0.2 µM | ≤ 0.025 µM |
| CCC(=O)Nc1ccc(Sc2nc(Nc3cc(C)n[nH]3)cc(N3CCC(N4CCCC4)CC3)n2)cc1 [Compound I-41] | 0.025 to 0.1 µM | ≤ 0.05 µM |  | ≤ 0.01 µM | < 0.2 µM | 0.025 to 0.125 µM |
| CCC(=O)Nc1ccc(Sc2nc(Nc3cc(C)n[nH]3)cc(N3CC[C@@H](N(C)C)C3)n2)cc1 [Compound I-24] | < 0.025 µM | 0.05 to 0.2 µM |  | ≤ 0.01 µM |  |  |
| CCC(=O)Nc1ccc(Sc2nc(Nc3cc(C)n[nH]3)cc(N3CCC(N4[C@H](C)CC[C@H]4C)CC3)n2)cc1 [Compound I-57] | < 0.025 µM | ≤ 0.05 µM | 0.01 to 0.05 µM | ≤ 0.01 µM |  |  |
| Cc1cc(Nc2cc(N3CCC(N4CCCC4)CC3)nc(Sc3ccc(NC(=O)CC(F)(F)F)cc3)n2)[nH]n1 [Compound I-68] | < 0.025 µM |  | 0.01 to 0.05 µM | ≤ 0.01 µM | < 0.2 µM | ≤ 0.025 µM |
| CCC(=O)Nc1ccc(Sc2nc(Nc3cc(C)n[nH]3)cc(N3CCC4(CCN(C)C4)CC3)n2)cc1 [Compound I-53] | < 0.025 µM | ≤ 0.05 µM |  | ≤ 0.01 µM | < 0.2 µM | 0.025 to 0.125 µM |
| CCN[C@H]1CCN(c2cc(Nc3cc(C)n[nH]3)nc(Sc3ccc(NC(=O)CC)cc3)n2)C1 [Compound I-39] | < 0.025 µM | ≤ 0.05 µM | 0.01 to 0.05 µM | ≤ 0.01 µM |  |  |
| Cc1cnc(Nc2cc(N3CC[C@H](O)C3)nc(Sc3ccc(NC(=O)C4CC4)cc3)n2)s1 [Compound I-12] | 0.025 to 0.1 µM | 0.05 to 0.2 µM |  | ≤ 0.01 µM |  |  |
| Cc1cc(Nc2cc(N3CCC(F)(F)C3)nc(Sc3ccc(NC(=O)CC(F)(F)F)cc3)n2)[nH]n1 [Compound I-27] | 0.025 to 0.1 µM | 0.05 to 0.2 µM | 0.01 to 0.05 µM | ≤ 0.01 µM | < 0.2 µM | 0.025 to 0.125 µM |
| Cc1cnc(Nc2cc(N3CCC(N4CCOCC4)CC3)nc(Sc3ccc(NC(=O)C4CC4)cc3)n2)s1 [Compound I-4] | < 0.025 µM |  |  | ≤ 0.01 µM |  |  |
| CCC(=O)Nc1ccc(Sc2nc(Nc3cc(C)n[nH]3)cc(N3CC4CN(C(C)C)CC4C3)n2)cc1 (stereo not shown) [Compound I-60] | < 0.025 µM | ≤ 0.05 µM | 0.01 to 0.05 µM | ≤ 0.01 µM |  |  |
| CCC(=O)Nc1ccc(Sc2nc(Nc3cc(C)n[nH]3)cc(N3CC[C@H](N4CCCC4)C3)n2)cc1 [Compound I-55] |  | ≤ 0.05 µM |  | ≤ 0.01 µM | 0.2 to 0.5 µM |  |
| CN[C@H]1CCN(c2cc(Nc3ncc(C)s3)nc(Sc3ccc(NC(=O)C4CC4)cc3)n2)C1 [Compound I-52] | < 0.025 µM | ≤ 0.05 µM |  | ≤ 0.01 µM |  |  |
| Cc1cc(Nc2cc(N3CCC(N4CCC(F)(F)C4)CC3)nc(Sc3ccc(NC(=O)CC(F)(F)F)cc3)n2)[nH]n1 [Compound I-82] |  |  | 0.01 to 0.05 µM | ≤ 0.01 µM | 0.2 to 0.5 µM | 0.025 to 0.125 µM |
| Cc1cnc(Nc2cc(N3CCC(N4CCCC4)CC3)nc(Sc3ccc(NC(=O)C4CC4)cc3)n2)s1 [Compound I-38] | < 0.025 µM | ≤ 0.05 µM | 0.01 to 0.05 µM | ≤ 0.01 µM |  |  |
| Cc1cc(Nc2cc(N3CCC(N4CCN(C)CC4)CC3)nc(Sc3ccc(NC(=O)CC(F)(F)F)cc3)n2)[nH]n1 [Compound I-73] |  |  | 0.01 to 0.05 µM | ≤ 0.01 µM |  | ≤ 0.025 µM |
| CCC(=O)Nc1ccc(Sc2nc(Nc3cc(C)n[nH]3)cc(N3CCC(O)(CC)CC3)n2)cc1 [Compound I-44] |  | ≤ 0.05 µM | 0.01 to 0.05 µM | ≤ 0.01 µM |  |  |
